From publication PMC11876772 (Materials Today Bio, 2025)

What was measured:
in vitro = details: chicken
[1] = system: TLR7/MyD88/NF-кB and MAPK pathways in BMDCs; assay type: cell-based, ICR mice

CC(C)Cn1cnc2c(N)nc3ccccc3c21 [IMQ, imiquimod]
hemolysis (in vitro): ~37.5%
protein expression of TLR7 and MyD88 compared with un-treated BMDCs [1]: induced the high protein expression of TLR7 (P < 0.001) and MyD88 (P < 0.001)
